# Test results taken from patent US20180362543A1, “HIV REPLICATION INHIBITOR” (Shionogi & Co., Ltd., priority 2013, published 2018).
# System: HIV (HTLV-III B strain)
# Assay: HIV replication inhibition assay (MTT, MT-4 cells)
# Type: cell-based
# Conditions: 4 days culture, concentration at which cell cytotoxicity by virus is inhibited 50%
# Protocol: HIV (HTLV-III B strain) persistent infected human T cell strain Molt-4 clone 8 was cultured in 10% Fetal Bovine Serum-containing RPMI-1640 medium and the supernatant was filtrated, then the virus titer was measured and the solution was stored at −80° C. Each anti-human immunodeficiency virus active substance was diluted with the above cultured medium to the designated concentration, which was dispensed into 96 well micro plate by 50 μL. Next, a MT-4 cell suspended liquid was dispensed by 100 μL (2.5×10^4 cells), then the above HIV-containing supernatant diluted with the above cultured medium was added thereto by 50 μL (60 pfu (plaque forming unit)).
# The obtained mixture was cultured at 37° C. in CO2 incubator for four days, then 3-(4,5-dimehylthiazole-2-yl)-2,5-diphenyltetrazolynium bromide (MTT) 5 mg/mL in PBS was added to each well by 30 μL, followed by 1 hr-cultivation. In this step, as formazan was precipitated by reduction of MTT in living cells, the cell supernatant was removed from all well by 150 μL, then a 150 μL of solution (10% Triton X-100 and […]) was added thereto, followed by shaking with a plate mixer, to elute formazan. The formazan was measured with a microreader at OD: 560 nm and 690 nm (wavelength) and the result was compared with the reference. EC50 means the compound concentration at which cell cytotoxicity by virus is inhibited 50%.
row,SMILES,EC50 [nM]
1,Cc1c(C(OC(C)(C)C)C(=O)O)c(-c2ccc3c(c2)CCCO3)c(C)c2c1[nH]c(=O)n2Cc1ccccc1 (stereo not drawn) [Compound 3],64
2,Cc1c(-c2c([C@H](OC(C)(C)C)C(=O)O)c(C)c3nc(O)c4ccccc4c3c2C)ccc2c1CCCO2 [Compound 8],62

# Same assay, conditions: Human immunodeficiency virus 1, MT4, 96 h, 4 days culture, concentration at which cell cytotoxicity by virus is inhibited 50%
row,SMILES,EC50 [nM]
1,Cc1c([C@H](OC(C)(C)C)C(=O)O)c(-c2ccc3c(c2)CCCO3)c(C)c2c1ncc1ccsc12 [Compound 17],59
2,Cc1ccc(-c2c(C)c3c(c(C)c2[C@H](OC(C)(C)C)C(=O)O)N(S(C)(=O)=O)Cc2ccccc2-3)cc1 [Compound 20],13
3,Cc1ccc(-c2c(C)c3c(c(C)c2[C@H](OC(C)(C)C)C(=O)O)NC(=O)CCc2ccccc2-3)cc1 [Compound 42],10
4,Cc1ccc(-c2c(C)c3c(c(C)c2[C@H](OC(C)(C)C)C(=O)O)NC(=O)c2ccc(C)nc2O3)cc1 [Compound 48],29
5,Cc1ccc(-c2c(C)c3c(c(C)c2[C@H](OC(C)(C)C)C(=O)O)NC(=O)N(C2CCCCC2)CC3)cc1 [Compound 71],16
6,Cc1c2c3c(c(C(OC(C)(C)C)C(=O)O)c1-c1ccc4c(c1)CCCO4)CCCN3S(=O)(=O)N(Cc1ccccc1)C2 (stereo not drawn) [Compound 79],15

# Same assay, conditions: Human immunodeficiency virus 1, MT4, 96 h, Table A-2, four days
row,EC50 [nM],SMILES
1,21,Cc1ccc(-c2c(C)c3c(c(C)c2[C@H](OC(C)(C)C)C(=O)O)NS(=O)(=O)/C=C/CCCCO3)cc1 [Compound 88]
2,4.2,Cc1ccc(-c2c(C)c3c(c(C)c2[C@H](OC(C)(C)C)C(=O)O)NS(=O)(=O)Cc2cc(F)ccc2-3)cc1 [Compound 91]
3,9.8,Cc1ccc(-c2c(C)c3c(c(C)c2[C@H](OC(C)(C)C)C(=O)O)NS(=O)(=O)Cc2ccc(F)cc2-3)cc1 [Compound 95]
4,32,Cc1ccc(-c2c([C@H](OC(C)(C)C)C(=O)O)c(C)c3nc(O)c4cc(C)ccc4c3c2C)cc1 [Compound 96]
5,22,Cc1ccc(-c2c([C@H](OC(C)(C)C)C(=O)O)c(C)c3nc(O)c4cc(C(F)(F)F)ccc4c3c2C)cc1 [Compound 98]
6,97,Cc1ccc(-c2c([C@H](OC(C)(C)C)C(=O)O)c(C)c3ncc4cc5ccccc5nc4c3c2C)cc1 [Compound 99]
7,10,Cc1ccc(-c2c([C@H](OC(C)(C)C)C(=O)O)c(C)c3nc(O)c4cc(F)cnc4c3c2C)cc1 [Compound 100]
8,17,Cc1ccc(-c2c([C@H](OC(C)(C)C)C(=O)O)c(C)c3nc(O)c4cc5ccsc5nc4c3c2C)cc1 [Compound 101]
9,12,Cc1ccc(-c2c(C)c3c(c(C)c2[C@H](OC(C)(C)C)C(=O)O)N(S(C)(=O)=O)Cc2cc(F)c(F)cc2-3)cc1 [Compound 108]
10,9.1,Cc1ccc(-c2c(C)c3c(c(C)c2[C@H](OC(C)(C)C)C(=O)O)N(S(C)(=O)=O)Cc2cccc(F)c2-3)cc1 [Compound 109]
11,17,Cc1ccc(-c2c(C)c3c(c(C)c2[C@H](OC(C)(C)C)C(=O)O)N(S(C)(=O)=O)Cc2ccc(C)cc2-3)cc1 [Compound 110]
12,7.8,Cc1ccc(-c2c(C)c3c(c(C)c2[C@H](OC(C)(C)C)C(=O)O)NC(=O)C2(CCC2)N3)cc1 [Compound 111]
13,8.5,Cc1ccc(-c2c(C)c3c(c(C)c2[C@H](OC(C)(C)C)C(=O)O)NC(=O)C2(CCC(C)(C)CC2)N3)cc1 [Compound 112]
14,8.6,Cc1ccc(-c2c(C)c3c(c(C)c2[C@H](OC(C)(C)C)C(=O)O)NC(=O)C2(C[C@@H]4CC[C@H]2C4)N3)cc1 (stereo partly drawn) [Compound 113]
15,6,Cc1ccc(-c2c(C)c3c(c(C)c2[C@H](OC(C)(C)C)C(=O)O)N(S(C)(=O)=O)Cc2cc(C)ccc2-3)cc1 [Compound 115]
16,2.9,Cc1ccc(-c2c(C)c3c(c(C)c2[C@H](OC(C)(C)C)C(=O)O)N(S(C)(=O)=O)Cc2c-3ccc3cccnc23)cc1 [Compound 116]
17,3.8,COc1ccc2c(c1)CN(S(C)(=O)=O)c1c(C)c([C@H](OC(C)(C)C)C(=O)O)c(-c3ccc(C)cc3)c(C)c1-2 [Compound 122]
18,39,Cc1ccc(-c2c(C)c3c(c(C)c2[C@H](OC(C)(C)C)C(=O)O)NS(=O)(=O)Cc2cccc(C)c2-3)cc1 [Compound 125]
19,11,Cc1ccc(-c2c(C)c3c(c(C)c2[C@H](OC(C)(C)C)C(=O)O)NS(=O)(=O)N(C2CCCCC2)CC3)cc1 [Compound 127]
20,10,Cc1ccc(-c2c(C)c3c(c(C)c2[C@H](OC(C)(C)C)C(=O)O)NS(=O)(=O)N(C2CCCCCC2)CC3)cc1 [Compound 128]
21,7.7,Cc1ccc(-c2c(C)c3c(c(C)c2[C@H](OC(C)(C)C)C(=O)O)NS(=O)(=O)N(C2CCCC2)CC3)cc1 [Compound 129]
22,12,Cc1ccc(-c2c(C)c3c(c(C)c2[C@H](OC(C)(C)C)C(=O)O)NS(=O)(=O)N(CC2CCCCC2)CC3)cc1 [Compound 130]
23,87,Cc1ccc(-c2c(C)c3c(c(C)c2[C@H](OC(C)(C)C)C(=O)O)NS(=O)(=O)N(C2CCOCC2)CC3)cc1 [Compound 131]
24,22,COCCN1CCc2c(C)c(-c3ccc(C)cc3)c([C@H](OC(C)(C)C)C(=O)O)c(C)c2NS1(=O)=O [Compound 132]
25,4.8,Cc1ccc(-c2c(C)c3c(c(C)c2[C@H](OC(C)(C)C)C(=O)O)NS(=O)(=O)N(Cc2ccc(F)cc2)CC3)cc1 [Compound 133]
26,62,Cc1ccc(-c2c(C)c3c(c(C)c2[C@H](OC(C)(C)C)C(=O)O)NS(=O)(=O)N(C(c2ccccc2)c2ccccc2)CC3)cc1 [Compound 134]

# Same assay, conditions: Human immunodeficiency virus 1, MT4, 96 h, Table A-3, four days
row,EC50 [nM],SMILES
1,3.1,Cc1ccc(-c2c(C)c3c(c(C)c2[C@H](OC(C)(C)C)C(=O)O)NC(=O)C2(CCCCCC2)N3)cc1 [Compound 140]
2,3.5,Cc1ccc(-c2c(C)c3c(c(C)c2[C@H](OC(C)(C)C)C(=O)O)N(S(C)(=O)=O)Cc2c-3ccc(C)c2F)cc1 [Compound 141]
3,4.4,Cc1ccc(-c2c(C)c3c(c(C)c2[C@H](OC(C)(C)C)C(=O)O)N(S(C)(=O)=O)Cc2c(F)ccc(F)c2-3)cc1 [Compound 142]
4,39,Cc1ccc(-c2c(C)c3c(c(C)c2[C@H](OC(C)(C)C)C(=O)O)N(S(C)(=O)=O)Cc2cccnc2-3)cc1 [Compound 145]
5,8.8,Cc1ccc(-c2c(C)c3c(c(C)c2[C@H](OC(C)(C)C)C(=O)O)NC(=O)N(C2CCCCCC2)CC3)cc1 [Compound 148]
6,23,Cc1ccc(-c2c(C)c3c(c(C)c2[C@H](OC(C)(C)C)C(=O)O)NC(=O)N(C2CCCC2)CC3)cc1 [Compound 149]
7,22,Cc1ccc(-c2c(C)c3c(c(C)c2[C@H](OC(C)(C)C)C(=O)O)NC(=O)N(CC2CCCCC2)CC3)cc1 [Compound 150]
8,16,Cc1ccc(-c2c(C)c3c(c(C)c2[C@H](OC(C)(C)C)C(=O)O)NC(=O)N(C(c2ccccc2)c2ccccc2)CC3)cc1 [Compound 152]
9,47,Cc1ccc(-c2c([C@H](OC(C)(C)C)C(=O)O)c(C)c3nc(O)c4c(c3c2C)CCN(S(=O)(=O)c2ccc(F)cc2)C4)cc1 [Compound 153]
10,39,Cc1ccc(-c2c(C)c3c(c(C)c2[C@H](OC(C)(C)C)C(=O)O)N(S(=O)(=O)C2CC2)Cc2ccccc2-3)cc1 [Compound 155]
11,23,Cc1ccc(-c2c(C)c3c(c(C)c2[C@H](OC(C)(C)C)C(=O)O)NS(=O)(=O)Cc2cccc(F)c2-3)cc1 [Compound 156]
12,4.3,Cc1ccc(-c2c(C)c3c(c(C)c2[C@H](OC(C)(C)C)C(=O)O)NC(=O)C2(CCC(F)(F)CC2)N3)cc1 [Compound 157]
13,5.3,Cc1ccc(-c2c(C)c3c(c(C)c2[C@H](OC(C)(C)C)C(=O)O)N(S(C)(=O)=O)Cc2cc(C(F)(F)F)ccc2-3)cc1 [Compound 159]
14,21,Cc1ccc(-c2c(C)c3c(c(C)c2[C@H](OC(C)(C)C)C(=O)O)N(S(C)(=O)=O)Cc2ccc(F)cc2-3)cc1 [Compound 161]
15,13,COc1cc(C)c2c(c1)CN(S(C)(=O)=O)c1c(C)c([C@H](OC(C)(C)C)C(=O)O)c(-c3ccc(C)cc3)c(C)c1-2 [Compound 162]

# Same assay, conditions: Table A-2, four days
row,EC50 [nM],SMILES
1,2.1,Cc1ccc(-c2c(C)c3c(c(C)c2[C@H](OC(C)(C)C)C(=O)O)N(S(C)(=O)=O)Cc2cc4c(cc2-3)OCCO4)cc1 [Compound 104]
2,38,Cc1ccc(-c2c(C)c3c(c(C)c2[C@H](OC(C)(C)C)C(=O)O)N(S(C)(=O)=O)Cc2cc4c(cc2-3)OCCO4)cc1 [Compound 105]
3,19,Cc1ccc(-c2c(C)c3c(c(C)c2[C@H](OC(C)(C)C)C(=O)O)NS(=O)(=O)Cc2cc(C)ccc2-3)cc1 [Compound 117]
4,4.4,Cc1ccc(-c2c(C)c3c(c(C)c2[C@H](OC(C)(C)C)C(=O)O)NS(=O)(=O)Cc2cc(C)ccc2-3)cc1 [Compound 118]
5,43,Cc1ccc(-c2c(C)c3c(c(C)c2[C@H](OC(C)(C)C)C(=O)O)NS(=O)(=O)Cc2ccc(C)cc2-3)cc1 [Compound 119]
6,5.1,Cc1ccc(-c2c(C)c3c(c(C)c2[C@H](OC(C)(C)C)C(=O)O)NS(=O)(=O)Cc2ccc(C)cc2-3)cc1 [Compound 120]
7,89,Cc1ccc(-c2c(C)c3c(c(C)c2[C@H](OC(C)(C)C)C(=O)O)NS(=O)(=O)Cc2c(F)cccc2-3)cc1 [Compound 123]
8,8.2,Cc1ccc(-c2c(C)c3c(c(C)c2[C@H](OC(C)(C)C)C(=O)O)NS(=O)(=O)Cc2c(F)cccc2-3)cc1 [Compound 124]
